Test results reported in patent US9121007B2, “Treatment of bone-related cancers using placental stem cells” (ANTHROGENESIS CORPORATIN, priority 2010, dated 2015).

Tested on: osteoclast precursors
Assay: Osteoclastogenesis from osteoclast precursors with lenalidomide
Assay type: cell-based
Protocol: FIG. 15. Therefore, there is a possible synergistic or additive anti-osteoclastogenic effect of PDACs and lenalidomide at concentration of between about 0.1 μM to 1 μM.

How did the “number of osteoclasts that differentiated from the osteoclast precursors” value (0.1 μM or 1 μM lenalidomide with placental stem cells, vs placental stem cells or BM-MSC) turn out when `Nc1cccc2c1CN(C1CCC(=O)NC1=O)C2=O` (centres unmarked) [lenalidomide, 3-(4-amino-1-oxo 1,3-dihydro-2H-isoindol-2-yl) piperidine-2,6-dione] was run?
The value was “further decrease the number of osteoclasts”.

And the “number of osteoclasts formed” value (lenalidomide alone at concentrations around 1 μM)?
The value was “steep decline in the number of osteoclasts formed”.
